# Laboratory results: patent US9862690B2, “Treatment of pulmonary and other conditions” (University of Pittsburgh—of the Commonwealth System of …, priority 2013, dated 2018)
# Legend:
# BEAS-2B cells = assay type: cell-based
# Protocol: To evaluate cell viability, apoptosis, and cytotoxicity, the Apo Tox-Glo Triplex assay was used according to the manufacturer's instructions (Promega, Madison, Wis.). Briefly, the BEAS-2B cells were plated at 2×10^4 cells/well in 100 μl medium in an opaque walled, clear-bottomed, 96-well plate. After 24 hr culture, they were treated for a further indicated time with different concentrations of PB141 or PB157. At the end of the culture period, 20 μl viability/cytotoxicity reagent was added to each well, mixed by orbital shaking (300 r.p.m. for 30 s) and incubated for 30 min at 37° C. Fluorescence was then measured with excitation at 400 nm and emission at 505 nm to assess cell viability, and 485 nm excitation and 520 nm emission to assess cytotoxicity; both were quantified as relative fluorescence units (RFU). Then, 100 μl Caspase-Glo 3/7 reagent was added to each well, mixed by orbital shaking (300 r.p.m. for 30 s) and incubated for 30 min at room temperature. Luminescence was measured to assess caspase activation as a marker of apoptosis and quantified as relative luminescence units. Results for PB141 and PB157 were similar.
# [1] = TRAP assay (quenching of ABTS+ radical cation); assay type: biochemical; settings: 10 μmol compound, 5 min, absorbance 734 nm; Troxol reference
# Protocol: The anti-oxidant activities of PB 141 were determined by the ability of this compound to react with pre-formed radical monocation of 2,2′-azinobis-(3-ethylbenzothiazoline)-6-sulfonic acid (ABTS^+). Data are representative of one of two independent experiments; n=3; *** P<0.001 versus Troxol.
# The anti-oxidant activity of PB141 or PB157 was determined by the ability of these compounds to react with the pre-formed radical monocation of 2,2′-azinobis-(3-ethylbenzothiazoline)-6-sulfonic acid (ABTS^+). ABTS (1.8 mmol) was reacted overnight with potassium persulfate (0.63 mmol) in double distilled water, at room temperature in the dark, to generate the dark blue ABTS^+ radical cation. This radical cation has a maximum absorption at 734 nm. Immediately prior to the experiment, ABTS^+ was diluted with absolute ethanol to an absorbance of approximately 0.7 at 734 nm. PB141 or PB157 (10 μmol) was added to ABTS^+ (1 ml) and mixed by vortexing. The reaction was allowed to stabilize for 5 min and the absorbance was measured. The anti-oxidant activities of these compounds were determined by their ability to quench the color of the radical cation. Troxol (10 μmol) was used as reference standard.
# [2] = FRAP assay (ferric reduction/anti-oxidant power); assay type: biochemical; settings: 10 μmol compound, 5 min, 593 nm; Troxol reference
# Protocol: The antioxidant activity of PB141 was determined by ferric reduction/anti-oxidant power (FRAP) assay in which the compound is reacted with ferric tripyridyltriazine complex. Data are representative of one of two independent experiments; n=3; *** P<0.001 versus Troxol.
# The antioxidant activity of PB141 or PB157 was determined by ferric reduction/anti-oxidant power (FRAP) assay in which the compounds are reacted with ferric tripyridyltriazine complex. The ferric complex was prepared at room temperature by reaction of ferric chloride (16.7 mmol) and 2,4,6-trispyridyl-s-triazine (8.33 mmol) in pH 3.6 acetate buffer (0.25 M). The FRAP reagent was used immediately after preparation. PB141 or PB157 (10 μmol) was added to the FRAP reagent (1 ml) and mixed by vortexing. The reaction was allowed to stabilize for 5 min and the absorbance was measured. The antioxidant activities of these compounds were determined by the ability to reduce the ferric complex to a […] ferrous complex, monitored at 593 nm. Troxol (10 μmol) was used as reference standard.
compound,measurement,setting,value
CC(=O)N[C@@H](CSC(c1cnccn1)C1CCCC(C(SC[C@H](NC(C)=O)C(=O)O)c2cnccn2)C1=O)C(=O)O (stereo partly shown) [PB157],Cytotoxicity,BEAS-2B cells,without exhibiting cytotoxicity
same,Apoptosis (caspase 3/7 activation),"BEAS-2B cells; different concentrations, data not shown",induced apoptosis
same,Anti-oxidant activity (ability to quench ABTS+ radical cation),[1],clearly demonstrated
same,Antioxidant activity (reduction of ferric complex),[2],highly significant and approximately equal
